Here are results for 14 compounds from ChEMBL document CHEMBL1156786, “Conformationally constrained mimetics of laminin peptide YIGSR as precursors for antimetastatic disintegrins” (J Med Chem, 2009).

Where a SMILES comes first, the peptide text is derived from it.

Common to all, as to type: cell-based
In test [1] the target is Small ribosomal subunit protein uS2 (Homo sapiens) (UniProt P08865). Briefly: Binding affinity to LAMR1 in human HT1080 cells assessed as maximal cell attachment to compound coated plates after 3 hrs by hemocytometer. The conditions noted are these: HT-1080.
Test [2] shares this target. As to the kind of experiment: Binding affinity to LAMR1 in human HeLa cells assessed as maximal cell attachment to compound coated plates after 3 hrs by hemocytometer.
For test [3], the target named is Small ribosomal subunit protein uS2 (Mus musculus) (UniProt P14206). As to the kind of experiment: Binding affinity to LAMR1 in mouse B16-F10 cells assessed as maximal cell attachment to compound coated plates after 3 hrs by hemocytometer.
Test [4] addresses Small ribosomal subunit protein uS2 (Homo sapiens) (UniProt P08865). As to the kind of experiment: Binding affinity to LAMR1 in human HT1080 cells assessed as maximal cell attachment to compound coated plates at 0.2 ug/well after 3 hrs by hemocytometer. The conditions noted are these: HT-1080.
For test [5] the target is unchanged. Briefly: Binding affinity to LAMR1 in human HT1080 cells assessed as maximal cell attachment to compound coated plates at 20 ug/well after 3 hrs by hemocytometer. The conditions noted are these: HT-1080.

`CC[C@H](C)[C@@H]1NC(=O)[C@H](Cc2ccc(O)cc2)NC(=O)[C@H](CC(N)=O)NC(=O)[C@H](CCCNC(=N)N)NC(=O)[C@H](CO)NC(=O)[C@@H]2CCCN2C1=O` (cyclo(IPSRNY)): the figures for the Activity in test [1] and in test [2] were 53% and 32%, respectively.

Turning to `CC[C@H](C)[C@@H]1NC(=O)[C@H](Cc2ccc(O)cc2)NC(=O)[C@H]2CCCN2C(=O)[C@H](CCCNC(=N)N)NC(=O)[C@H](CO)NC(=O)[C@@H](CO)NC1=O`, in test [1], the Activity worked out at 76%.

In the case of `CC[C@H](C)[C@@H]1NC(=O)[C@H](Cc2ccc(O)cc2)NC(=O)CNC(=O)[C@@H]2CCCN2C(=O)[C@H](CC(=O)O)NC(=O)[C@H](CCCNC(=N)N)NC(=O)[C@H](CO)NC(=O)CNC1=O` (cyclo(DPGYIGSR)), the Activity in test [1] was 67%; in test [3] it was 62%; in test [2], 40%.

Regarding `CC[C@H](C)[C@@H]1NC(=O)[C@H](Cc2ccc(O)cc2)NC(=O)[C@H](CC(N)=O)NC(=O)[C@H](CCCNC(=N)N)NC(=O)[C@H](CO)NC(=O)[C@@H](CCC(=O)O)NC1=O`, the values for the Activity in test [1], in test [3] and in test [2] were 76%, 58% and 43%, respectively.

In the case of `CC[C@H](C)[C@@H]1NC(=O)[C@H](Cc2ccc(O)cc2)NC(=O)CNC(=O)[C@H](CCCNC(=N)N)NC(=O)[C@H](CO)NC(=O)[C@@H](CO)NC1=O`, the Activity in test [1] was determined as 72%; in test [3] it was 68%; in test [2], 45%.

In the case of `CC[C@H](C)[C@@H]1NC(=O)[C@H](Cc2ccc(O)cc2)NC(=O)[C@H](CC(N)=O)NC(=O)[C@H](CCCNC(=N)N)NC(=O)[C@H](CO)NC(=O)[C@@H](CCCCN)NC1=O`, the Activity in test [1] worked out at 64%; in test [2], 29%.

Turning to `CC[C@H](C)[C@@H]1NC(=O)[C@H](Cc2ccc(O)cc2)NC(=O)CNC(=O)[C@@H]2CCCN2C(=O)[C@H](CC(=O)O)NC(=O)[C@H](CCCNC(=N)N)NC(=O)[C@H](CO)NC(=O)[C@@H](CCC(=O)O)NC1=O`, the Activity in test [1] turned out to be 62%.

As for `CC[C@H](C)[C@@H]1NC(=O)[C@H](Cc2ccc(O)cc2)NC(=O)[C@H](CC(N)=O)NC(=O)[C@H](CCCNC(=N)N)NC(=O)[C@H](CO)NC(=O)CNC1=O` (cyclo(GSRNYI)), the Activity in test [1] came to 56%; in test [2], 32%.

As for `CC[C@H](C)[C@@H]1NC(=O)[C@H](Cc2ccc(O)cc2)NC(=O)[C@H](CC(N)=O)NC(=O)[C@H](CCCNC(=N)N)NC(=O)[C@H](CO)NC(=O)[C@@H]2CCCN2C(=O)[C@H]([C@@H](C)CC)NC(=O)[C@H](Cc2ccc(O)cc2)NC(=O)[C@H](CC(N)=O)NC(=O)[C@H](CCCNC(=N)N)NC(=O)[C@H](CO)NC(=O)[C@@H]2CCCN2C1=O` (cyclo(IPSRNYIPSRNY)), the Activity in test [1] was determined as 57%.

`CC[C@H](C)[C@@H]1NC(=O)[C@H](Cc2ccc(O)cc2)NC(=O)CNC(=O)[C@@H]2CCCN2C(=O)[C@H](CC(=O)O)NC(=O)[C@H](CCCNC(=N)N)NC(=O)[C@H](CO)NC(=O)[C@@H](CO)NC1=O`: the Activity in test [1] worked out at 75%.

As to `CC[C@H](C)[C@H](NC(=O)[C@@H](N)Cc1ccc(O)cc1)C(=O)NCC(=O)N[C@@H](CO)C(=O)N[C@@H](CCCNC(=N)N)C(=O)N[C@H](C)C(=O)N[C@H](CCSC)C(=O)O`, the Activity in test [1] stood at 53%; in test [2] it was 31%.

As for `CC[C@H](C)[C@@H]1NC(=O)[C@H](Cc2ccc(O)cc2)NC(=O)[C@H](CC(N)=O)NC(=O)[C@H](CCCNC(=N)N)NC(=O)[C@H](CO)NC(=O)[C@@H](CO)NC1=O`, the Activity stood at 81% in test [1]; 45% in test [3]; 20% in test [4]; 40% in test [5]; 46% in test [2].

`CC[C@H](C)[C@@H]1NC(=O)[C@H](Cc2ccc(O)cc2)NC(=O)CNC(=O)[C@@H]2CCCN2C(=O)[C@H](CC(=O)O)NC(=O)[C@H](CCCNC(=N)N)NC(=O)[C@H](CO)NC(=O)[C@@H](CCCCN)NC1=O`: the Activity in test [1] amounted to 45%.

As for `CC[C@H](C)[C@@H]1NC(=O)[C@H](Cc2ccc(O)cc2)NC(=O)[C@H](CC(N)=O)NC(=O)[C@H](CCCNC(=N)N)NC(=O)[C@H](CO)NC(=O)[C@@H](CO)NC(=O)[C@H]([C@@H](C)CC)NC(=O)[C@H](Cc2ccc(O)cc2)NC(=O)[C@H](CC(N)=O)NC(=O)[C@H](CCCNC(=N)N)NC(=O)[C@H](CO)NC(=O)[C@@H](CO)NC1=O`, in test [1], the Activity stood at 48%.
